Values of other authors, collected in US20260085040A1, “AMINO ACID AND CA[…] DERIVATIVES” (priority 2022, published 2026).

How the values were obtained:
[1] = controlled clinical environment, subjects with OCD
[2] = 10 patients with alcohol dependence per DSM-IV

CN(C)CCc1c[nH]c2cccc(OP(=O)(O)O)c12 [psilocybin]
Core OCD symptoms [1]: acute reductions in core OCD symptoms in several subjects
Safety of administration [1]: safely administered
Alcohol use post psilocybin administration [2]: significant decrease in alcohol use
Participants with biologically verified 7-day point-prevalence abstinence (6-month follow up): eighty
Participants biologically verified as being abstinent (12-month follow-up): 67%
Participants abstinent (follow-up 2.5 years after the target quit date): 75%
